Test results taken from ChEMBL document CHEMBL1147410, “Binding of an imidazopyridoindole at imidazoline I2 receptors” (Bioorg Med Chem Lett, 2004).

Legend:
[1] = Binding affinity for rat imidazoline I2 receptor from crude P2 membranes
[2] = Binding affinity for rat imidazoline I2 receptor from crude P2 membranes; 1-5
[3] = Binding affinity for rat imidazoline I2 receptor from crude P2 membranes; 350-880
[4] = biological target: T1, Adrenergic receptor alpha-2 (Rattus norvegicus, UniProt P22086+P19328+P22909); experiment: Binding affinity for rat alpha-2 adrenergic receptor from crude P2 membranes
T1 sequence (P22086 whole entry): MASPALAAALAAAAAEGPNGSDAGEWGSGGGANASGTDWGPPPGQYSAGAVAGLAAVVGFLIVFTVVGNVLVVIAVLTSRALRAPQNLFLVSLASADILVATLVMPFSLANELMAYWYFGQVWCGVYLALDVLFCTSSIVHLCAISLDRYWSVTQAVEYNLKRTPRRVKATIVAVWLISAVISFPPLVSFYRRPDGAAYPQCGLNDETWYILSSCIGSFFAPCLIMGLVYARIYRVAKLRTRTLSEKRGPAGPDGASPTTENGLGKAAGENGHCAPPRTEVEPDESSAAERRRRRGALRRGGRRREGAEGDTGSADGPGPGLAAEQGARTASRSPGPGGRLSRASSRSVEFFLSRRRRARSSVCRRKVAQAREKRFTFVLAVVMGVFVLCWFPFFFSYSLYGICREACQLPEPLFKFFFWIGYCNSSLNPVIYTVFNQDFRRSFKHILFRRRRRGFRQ
T1 sequence (P19328 whole entry): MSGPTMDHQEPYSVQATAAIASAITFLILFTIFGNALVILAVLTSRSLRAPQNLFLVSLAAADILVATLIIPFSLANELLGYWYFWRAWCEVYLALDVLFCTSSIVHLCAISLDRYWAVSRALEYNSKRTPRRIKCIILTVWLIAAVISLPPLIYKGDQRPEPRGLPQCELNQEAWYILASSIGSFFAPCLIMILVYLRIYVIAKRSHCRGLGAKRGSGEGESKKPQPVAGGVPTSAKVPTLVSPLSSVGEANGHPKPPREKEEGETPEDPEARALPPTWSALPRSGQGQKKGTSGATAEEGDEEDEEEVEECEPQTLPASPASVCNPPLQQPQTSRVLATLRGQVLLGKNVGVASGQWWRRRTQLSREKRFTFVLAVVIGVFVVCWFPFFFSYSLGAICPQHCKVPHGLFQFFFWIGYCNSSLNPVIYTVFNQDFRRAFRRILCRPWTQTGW
T1 sequence (P22909 whole entry): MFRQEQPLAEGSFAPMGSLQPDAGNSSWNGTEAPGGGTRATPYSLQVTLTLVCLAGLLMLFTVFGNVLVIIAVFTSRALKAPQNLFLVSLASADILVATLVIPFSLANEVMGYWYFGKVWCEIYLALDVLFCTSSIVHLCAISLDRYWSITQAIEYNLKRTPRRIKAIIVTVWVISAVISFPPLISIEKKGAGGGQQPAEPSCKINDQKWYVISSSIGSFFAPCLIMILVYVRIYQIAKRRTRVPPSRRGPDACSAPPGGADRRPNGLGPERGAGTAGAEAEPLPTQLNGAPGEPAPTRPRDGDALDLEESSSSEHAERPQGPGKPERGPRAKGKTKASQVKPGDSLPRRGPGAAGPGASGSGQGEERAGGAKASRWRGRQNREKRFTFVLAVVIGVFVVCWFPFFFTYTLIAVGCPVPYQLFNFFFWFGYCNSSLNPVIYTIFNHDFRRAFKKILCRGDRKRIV

Compound	Ki [1]	Ki [4]	other results
c1coc(C2=NCCN2)c1	2340 nM		
c1ccc(OCC2=NCCN2)cc1			Ki [2]: 5 nM
c1ccc2c(c1)CC(C1=NCCN1)O2 (stereo not drawn)	~50 nM		
c1ccc2oc(-c3ncc[nH]3)cc2c1			Ki [3]: ~880 nM
c1ccc2oc(C3=NCCN3)cc2c1	< 10 nM	4 µM	
COc1ccc2c3c([nH]c2c1)CNCC3		8.84 µM	
c1ccc(CCC2=NCCN2)cc1 [PHENYZOLINE]			Ki [2]: 5 nM
c1ccc2c3c([nH]c2c1)CNCC3 [TRYPTOLINE]	9.4 nM	0.71 µM	

Now from value to molecule, other results behind:

Ki [1]	Compound	Ki [4]	other results
7.3 nM	c1ccc2c3c([nH]c2c1)C1=NCCN1CC3		
2 nM	C(=C\c1ccccc1)/C1=NCCN1 [TRACIZOLINE]	7.413 µM	
